Consider seven compounds from patent publication US20130219529A1, “PROBE FOR A HAIR CELL, AND LABELLING METHOD FOR A HAIR CELL USING THE PROBE FOR A HAIR CELL” (CANON KABUSHIKI KAISHA, priority 2008, published 2013).

Data set [1] is described as follows: Excitation and fluorescence emission wavelength measured with fluorescence spectrophotometer. Format: physicochemical. The note with it: aqueous solution, 10 mg/mL DMSO solution diluted 500-fold with purified water.
The subject of data set [2] is hair cell (neuromast) of Zebrafish. The data set is described as follows: Staining of hair cell (neuromast) of Zebrafish juveniles with probe, fluorescence stereomicroscope image visually evaluated. The note with it: dye concentration 250 μg/mL, 1 hour, Zebrafish juveniles Day 7 after fertilization. Format: in vivo.
The next data set concerns hair cell of Zebrafish. The note with it: 5 μM chemical substance, 24 hours exposure, Zebrafish Day 7 after fertilization, stained with staining compound 54. The method, then:
Zebrafish after exposure was washed with distilled water. The same operation as that in Example 1 was performed except that the staining compound (1) used in Example 1 was changed to a staining compound (54).

Data set [3] concerns neuromast (hair cell) of Zebrafish. Nature of the data set: Staining intensity of neuromast at different concentrations of staining agent (fluorescence intensity per unit intake time). In kind it is in vivo. The note with it: 10, 30 and 100 ng/mL staining solutions, intensity/msec. The method, then: The compounds (43), (54), and (65) were selected as probes for a hair cell, and compared with FM1-43. Three kinds of staining solutions containing those staining agents were prepared at concentrations of 10 ng/mL, 30 ng/mL, and 100 ng/mL. Juveniles of (embryos on Day 7 after fertilization) of Zebrafish were stained in the same manner as that in Example 1. When a fluorescence image is acquired with a fluorescence stereomicroscope, the fluorescence intensity per unit intake time (intensity/msec) was calculated by changing an intake time (exposure time) and dividing the fluorescence intensity (Relative Fluorescence Unit, RFU) of a neuromast of the obtained fluorescence image by the intake time.

For data set [4], the system named is hair cell (neuromast) of Zebrafish. Nature of the data set: Staining of hair cell (neuromast) of Zebrafish juveniles with probe, fluorescence stereomicroscope image visually evaluated. Details: Fluorescence intensity: key to the marks not given beside the values. Format: in vivo. The note with it: dye concentration 1 μg/mL, 1 hour, Zebrafish juveniles Day 7 after fertilization. The method, then: A staining compound (1) was dissolved in DMSO to prepare a stock solution at a concentration of 1 mg/mL. The stock solution was diluted with distilled water to prepare a hair cell staining solution 1 having a dye concentration of 1 μg/mL. Further, Egg Water was prepared by dissolving artificial seawater SEALIFE (manufactured by Marinetech Co., Ltd.) in distilled water at a concentration of 60 mg/L. Five juveniles (embryos on Day 7 after fertilization) of Zebrafish were placed into any one of wells of a 24-well multiwell plate together with feeding water. The feeding water was discharged and 1 mL of the hair cell staining solution 1 was added. After the whole had been left to stand for 1 hour, the hair cell staining solution 1 in the well was discharged and replaced by 1 mL of fresh Egg Water. In addition, such an operation that Egg Water was discharged and replaced by 1 mL of fresh Egg Water was repeated twice. One of the juveniles was taken out from the well onto a dish, the motion of the juvenile was restricted by addition of methylcellulose, and a fluorescence image was captured with a fluorescence stereomicroscope. MZ16FA manufactured by Leica Microsystems K.K. was used as a stereoscopic microscope.
An image pickup unit (a digital camera DP72 for a microscope manufactured by Olympus Corporation) of a fluorescence stereomicroscope was remodeled by removing an IR cut filter so as to capture a fluorescence image in a near-infrared wavelength region.

The test system of data set [5] is juvenile neuromast (hair cell) of Zebrafish. The data set is described as follows: Change in staining intensity of neuromast due to morpholino knockdown of target genes (SLC25A12, TRPC2). Format: in vivo. The note with it: for Increase of staining properties by knockdown of SLC25A12 and TRPC2 genes: each of SLC25A12 and TRPC2 knockdown; for Ratio of staining intensity (KD/control): juveniles Day 7. The method, then: In order to knockdown a specific gene, a mixed solution containing a morpholino antisense oligonucleotide (MO) was prepared. MO was synthesized by using GeneTools, LLC (Philomath, Oreg.). A morpholino antisense oligonucleotide (atgMO) designed so that the translation from a start codon to a protein would be inhibited was dissolved in distilled water to prepare a MO mixed solution having the following composition.
A fertilized embryo within 1 hour after fertilization (before a second cleavage period) of Zebrafish was microinjected with the MO mixed solution. A capillary made of glass (inner diameter: 0.6 mm) having a sharp extremity obtained by extending and cutting a glass tube with a PC-10 puller (manufactured by Narishige Co., Ltd.) and grinding the cross section with a EG-400 grinder (manufactured by Narishige Co., Ltd.) was used for the microinjection. Feeding water and the fertilized embryo were placed into a 10-cm dish in which 1% agarose had been bedded, and the microinjection was performed under a stereoscopic microscope. During injection, one of a manual injector IM-9A (manufactured by Narishige Co., Ltd.) and an electrical microinjector IM-30 (manufactured by Narishige Co., Ltd.) was connected to the capillary made of glass, to thereby perform infusion with pressure. The infusion amount of MO was set to 1 to 10 ng per fertilized embryo.
Because the MO mixed solution is supplemented with a dye (0.005% phenol red), the success or failure of the infusion of the MO mixed solution may be confirmed with the naked eye. Further, because the MO mixed solution is supplemented with a fluorescent protein expression vector (EGFP), on Day 3 after infusion, the success or failure of the microinjection can be confirmed after the fertilized embryo has hatched (a sample in which a signal derived from the fluorescent protein was observed also retains MO in Zebrafish).
Juveniles (embryos on Day 7 after fertilization) of Zebrafish were stained in the same manner as that in Example 1, and a change in staining condition of the hair cell was measured.
The compound (54) was selected as the probe for a hair cell and compared with FM1-43. Further, SLC25A12 and TRPC2 were selected as target genes. The staining intensity of a juvenile neuromast having unknockdown genes was used as a control, and compared with the staining intensity of a juvenile neuromast in which each of the target genes has been knockdown by representing a fluorescence image obtained with a stereoscopic microscope in numerical values.

Consider `CC[n+]1ccccc1C=Cc1ccc(N(C)C)cc1.[I-]` [DASPEI, 2-(4-(dimethylamino)styryl)-N-ethylpyridinium iodide, reference compound], for which, in data set [1], the Excitation wavelength λex is 461 nm and the Fluorescence emission wavelength λem amounted to 589 nm. Also, in data set [2], the Fluorescence intensity entry is “+”.

For the compound `NCCS(=O)(=O)O` [Taurine, taurine], in the data set with hair cell of Zebrafish, the “Change in staining intensity” value is recorded as “No change”.

Consider `CN1/C(=C\C=C\C2=[N+](C)c3ccccc3C2(C)C)C(C)(C)c2ccccc21` [Staining compound 43], for which the “Staining intensity of the hair cell compared with FM1-43 (FIG. 4)” value in data set [3] is on record as “higher”.

In data set [1], `CCCCN(CCCC)c1ccc(/C=C/c2cc[n+](CCC[N+](CC)(CC)CC)cc2)cc1.[Br-].[Br-]` [FM1-43, reference compound] gave an Excitation wavelength λex of 503 nm. In addition, the Fluorescence emission wavelength λem in data set [1] was 627 nm. Also, the Fluorescence intensity entry in data set [4] was “+++”. For the same compound, in data set [5], the “Increase of staining properties by knockdown of SLC25A12 and TRPC2 genes” value is reported as “about 30%”. The “Ratio of staining intensity (KD/control)” value was found to be 1.36 in data set [5] (target gene SLC25A12 knockdown) and 1.35 in data set [5] (target gene TRPC2 knockdown).

In data set [1], `CC1(C)C(/C=C/C=C/C=C/C=C2\N(CCCCS(=O)(=O)O)c3ccc4ccccc4c3C2(C)C)=[N+](CCCCS(=O)(=O)[O-])c2ccc3ccccc3c21` [ICG, indocyanine green, reference compound] returned an Excitation wavelength λex of 784 nm and a Fluorescence emission wavelength λem of 811 nm. Also, in data set [2], the Fluorescence intensity entry is listed as “No stained” and the Staining pattern result is “No stained”.

As for `CC/N=c1\cc2oc3cc(NCC)c(C)cc3c(-c3ccccc3C(=O)OCC)c-2cc1C` [Staining compound 54], the “Increase of staining properties by knockdown of SLC25A12 and TRPC2 genes” value in data set [5] is “about 2 fold”. Moreover, the “Ratio of staining intensity (KD/control)” value in data set [5] (target gene SLC25A12 knockdown) amounted to 2.06; in data set [5] (target gene TRPC2 knockdown), 2.18. The “Staining intensity of the hair cell compared with FM1-43 (FIG. 4)” value in data set [3] was “higher”.

In the case of `CCN1/C(=C\C=C\c2sc3ccccc3[n+]2CC)Sc2ccccc21` [Staining compound 65], the “Staining intensity of the hair cell compared with FM1-43 (FIG. 4)” value in data set [3] is “higher”.
